Assay results as given in patent US12540118B2, “Dendrene amide compound, bactericide and use thereof” (Jiangsu Flag Chemical Industry Co., Ltd., priority 2020, dated 2026).

Tests used:
[1] = target: T1, succinate dehydrogenase (Sus scrofa, UniProt A5GZW8+D0VWV4+Q007T0); assay: Enzyme activity assay, succinate dehydrogenase (DCIP reduction); assay type: biochemical, porcine; details: read-out: Inhibitors (10 μM, SQR)
T1 construct: isolated from porcine hearts; from tissue; host or cells: porcine heart
T1 sequence (Q0QF01 43-664 partner): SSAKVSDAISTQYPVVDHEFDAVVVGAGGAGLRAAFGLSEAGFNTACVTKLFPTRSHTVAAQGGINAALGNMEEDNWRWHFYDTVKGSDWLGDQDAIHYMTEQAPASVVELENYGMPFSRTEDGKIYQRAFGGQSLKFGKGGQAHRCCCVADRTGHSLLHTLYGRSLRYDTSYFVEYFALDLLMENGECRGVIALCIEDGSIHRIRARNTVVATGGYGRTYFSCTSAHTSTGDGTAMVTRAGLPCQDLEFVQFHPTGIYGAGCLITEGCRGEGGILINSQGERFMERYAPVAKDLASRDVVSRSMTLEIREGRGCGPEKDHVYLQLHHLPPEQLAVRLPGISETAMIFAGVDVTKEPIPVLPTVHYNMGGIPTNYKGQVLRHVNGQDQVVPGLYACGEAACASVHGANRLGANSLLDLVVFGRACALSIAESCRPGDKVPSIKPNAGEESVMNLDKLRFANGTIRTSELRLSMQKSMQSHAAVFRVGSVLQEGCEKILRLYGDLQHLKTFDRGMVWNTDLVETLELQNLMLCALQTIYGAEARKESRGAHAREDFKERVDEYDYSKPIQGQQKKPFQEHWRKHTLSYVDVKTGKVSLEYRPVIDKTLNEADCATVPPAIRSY
T1 sequence (Q007T0 29-280): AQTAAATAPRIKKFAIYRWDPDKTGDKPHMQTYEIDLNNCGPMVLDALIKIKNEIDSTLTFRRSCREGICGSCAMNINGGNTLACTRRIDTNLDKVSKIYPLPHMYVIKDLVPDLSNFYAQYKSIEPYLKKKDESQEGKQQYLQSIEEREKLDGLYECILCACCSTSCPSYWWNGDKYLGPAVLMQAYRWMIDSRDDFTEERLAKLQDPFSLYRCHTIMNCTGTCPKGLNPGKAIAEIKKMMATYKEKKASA
T1 sequence (D0VWV4 30-169): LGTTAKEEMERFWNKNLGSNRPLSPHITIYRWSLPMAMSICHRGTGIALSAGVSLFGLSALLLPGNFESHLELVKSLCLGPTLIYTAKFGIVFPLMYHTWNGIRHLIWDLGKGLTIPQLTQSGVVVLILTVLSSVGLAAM
T1 sequence (A5GZW8 57-159 limits assumed): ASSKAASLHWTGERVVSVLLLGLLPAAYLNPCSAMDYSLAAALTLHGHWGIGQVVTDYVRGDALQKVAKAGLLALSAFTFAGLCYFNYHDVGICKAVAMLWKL
Description: The inhibitory activities of control agents and target compounds on succinate dehydrogenase are determined.
The enzyme used in this test example is succinate dehydrogenase, which is isolated from porcine hearts.
The test method comprises the following steps: The total volume of the system is 1.8 ml, and the system contained 100 mM Na2HPO4—NaH2PO4 buffer (pH=7.4), 0.3 mM EDTA, 20 mM sodium succinate, 53 μM DCIP (2,6-dichloroindophenol sodium), and 2 nM succinate dehydrogenase. Thermostatic waterbath at 23° C. and magnetic stirring at 600 rpm. The decrease in the light absorption of the substrate DCIP is monitored at a wavelength of 600 nm and experimental points in a linear range are collected. Control substrate consumption not more than 5% of the experimental points. The molar extinction coefficient of DCIP is 21 mM^−1 cm^−1. And calculating the reduction yield of the DCIP in the reaction time, fitting a linear slope, and deducting the baseline slope to obtain the initial reaction speed.

[2] = tested on: Erysiphe graminis; assay: Erysiphe graminis potting method; assay type: in vivo; details: for pest or weed control at 100 µg/mL / pest or weed control at 6.25 µg/mL / pest or weed control at 25 µg/mL: Blumeria graminis, read-out: Erysiphe graminis control rating
Description: The fungicidal activity of the control agents and target compounds are determined. The test and investigation method refers to SOP-SC-1116 Erysiphe graminis potting method in disinfectant rolls written by KANGZHUO and GUBAOGEN in “Standard operation specification for testing biological activity of pesticides”.

[3] = tested on: Sphaerotheca fuliginea; assay: Sphaerotheca fuliginea potting method; assay type: in vivo; details: 100 mg/L; for pest or weed control at 100 µg/mL: Podosphaera fuliginea, read-out: Sphaerotheca fuliginea control rating
Description: The fungicidal activity of the control agents and target compounds are determined. The test and investigation method refers to SOP-SC-1101 sphaerotheca fuliginea potting method in disinfectant rolls written by KANGZHUO and GUBAOGEN in “Standard operation specification for testing biological activity of pesticides”.

inhibition at 10 µM [1] [%] | SMILES | pest or weed control at 100 µg/mL ([2]; 100 mg/L) [%] | pest or weed control at 100 µg/mL [3] [%] | further results
> 90 | C=C(CN(C(=O)c1c(C(F)F)nn(C)c1F)C1CC1)c1cc(Cl)cc(Cl)c1 [Compound 2] | 80 to 100 | 80 to 100 | 
> 90 | C=C(CN(C(=O)c1c(C(F)F)nn(C)c1F)C1CC1)c1ccccc1Br [Compound 3] | 80 to 100 | 80 to 100 | 
> 90 | C=C(CN(C(=O)c1c(C(F)F)nn(C)c1F)C1CC1)c1ccc(C)cc1 [Compound 4] | 80 to 100 | < 70 | 
> 90 | C=C(CN(C(=O)c1c(C(F)F)nn(C)c1F)C1CC1)c1cccc(Br)c1 [Compound 5] | 80 to 100 | < 70 | 
> 90 | C=C(CN(C(=O)c1c(C(F)F)nn(C)c1F)C1CC1)c1ccccc1C [Compound 6] | 80 to 100 | 80 to 100 | 
> 90 | C=C(CN(C(=O)c1c(C(F)F)nn(C)c1F)C1CC1)c1ccccc1Cl [Compound 7] | 80 to 100 | 80 to 100 | 
> 90 | C=C(CN(C(=O)c1c(C(F)F)nn(C)c1F)C1CC1)c1cccc(Cl)c1Cl [Compound 8] | 80 to 100 | 80 to 100 | 
> 90 | C=C(CN(C(=O)c1c(C(F)F)nn(C)c1F)C1CC1)c1ccccc1 [Compound 9] | 80 to 100 | < 70 | 
> 90 | C=C(CN(C(=O)c1c(C(F)F)nn(C)c1F)C1CC1)c1ccc(Cl)c(Cl)c1 [Compound 10] | 80 to 100 | 80 to 100 | 
> 90 | C=C(CN(C(=O)c1c(C(F)F)nn(C)c1F)C1CC1)c1ccc(Cl)c(C(F)(F)F)c1 [Compound 11] | 80 to 100 | 80 to 100 | 
> 90 | C=C(CN(C(=O)c1c(C(F)F)nn(C)c1F)C1CC1)c1cccc(F)c1F [Compound 12] | 80 to 100 | 70 to 80 | 
> 90 | C=C(CN(C(=O)c1c(C(F)F)nn(C)c1F)C1CC1)c1cc(F)c(Cl)cc1Cl [Compound 13] | 80 to 100 | 80 to 100 | 
> 90 | C=C(CN(C(=O)c1c(C(F)F)nn(C)c1F)C1CC1)c1cc(Cl)ccc1Cl [Compound 14] | 80 to 100 | 80 to 100 | 
> 90 | C=C(CN(C(=O)c1c(C(F)F)nn(C)c1F)C1CC1)c1ccc(S(C)(=O)=O)cc1 [Compound 15] | 80 to 100 | 70 to 80 | 
> 90 | C=C(CN(C(=O)c1c(C(F)F)nn(C)c1F)C1CC1)c1cccc(Cl)c1 [Compound 16] | 80 to 100 | 70 to 80 | 
> 90 | C=C(CN(C(=O)c1c(C(F)F)nn(C)c1F)C1CC1)c1ccc(Cl)cc1 [Compound 17] | 80 to 100 | 80 to 100 | 
> 90 | C=C(CN(C(=O)c1c(C(F)F)nn(C)c1F)C1CC1)c1c(Cl)cccc1Cl [Compound 18] | 80 to 100 | 80 to 100 | 
> 90 | C=C(CN(C(=O)c1c(C(F)F)nn(C)c1F)C1CC1)c1c(Cl)cc(Cl)cc1Cl [Compound 19] | 80 to 100 | 80 to 100 | 

inhibition at 10 µM [1] [%] | SMILES | pest or weed control at 100 µg/mL ([2]; 100 mg/L) [%] | pest or weed control at 100 µg/mL [3] [%] | further results
> 90 | C=C(CN(C(=O)c1c(C(F)F)nn(C)c1F)C1CC1)c1ccccc1F [Compound 20] | 80 to 100 | 80 to 100 | 
> 90 | C=C(CN(C(=O)c1c(C(F)F)nn(C)c1F)C1CC1)c1cccc(F)c1 [Compound 21] | 80 to 100 | 70 to 80 | 
> 90 | C=C(CN(C(=O)c1c(C(F)F)nn(C)c1F)C1CC1)c1ccc(F)cc1 [Compound 22] | 80 to 100 | 80 to 100 | 
> 90 | C=C(CN(C(=O)c1c(C(F)F)nn(C)c1F)C1CC1)c1ccc(F)cc1F [Compound 23] | 80 to 100 | 80 to 100 | 
> 90 | C=C(CN(C(=O)c1c(C(F)F)nn(C)c1F)C1CC1)c1cc(F)ccc1F [Compound 24] | 80 to 100 | 80 to 100 | 
> 90 | C=C(CN(C(=O)c1c(C(F)F)nn(C)c1F)C1CC1)c1c(F)cccc1F [Compound 25] | 80 to 100 | 80 to 100 | 
> 90 | C=C(CN(C(=O)c1c(C(F)F)nn(C)c1F)C1CC1)c1c(F)cc(F)cc1F [Compound 26] | 80 to 100 | 80 to 100 | 
> 90 | C=C(CN(C(=O)c1c(C(F)F)nn(C)c1F)C1CC1)c1ccc(Br)cc1 [Compound 27] | 80 to 100 | 80 to 100 | 
> 90 | C=C(CN(C(=O)c1c(C(F)F)nn(C)c1F)C1CC1)c1ccc(Br)cc1Br [Compound 28] | 80 to 100 | 80 to 100 | 
> 90 | C=C(CN(C(=O)c1c(C(F)F)nn(C)c1F)C1CC1)c1cc(Br)ccc1Br [Compound 29] | 80 to 100 | 80 to 100 | 
> 90 | C=C(CN(C(=O)c1c(C(F)F)nn(C)c1F)C1CC1)c1c(Br)cccc1Br [Compound 30] | 80 to 100 | 80 to 100 | 
> 90 | C=C(CN(C(=O)c1c(C(F)F)nn(C)c1F)C1CC1)c1c(Br)cc(Br)cc1Br [Compound 31] | 80 to 100 | 80 to 100 | 
> 90 | C=C(CN(C(=O)c1c(C(F)F)nn(C)c1F)C1CC1)c1cccc(C)c1 [Compound 32] | 80 to 100 | 70 to 80 | 
> 90 | C=C(CN(C(=O)c1c(C(F)F)nn(C)c1F)C1CC1)c1ccc(C)cc1C [Compound 33] | 80 to 100 | 80 to 100 | 
> 90 | C=C(CN(C(=O)c1c(C(F)F)nn(C)c1F)C1CC1)c1cc(C)ccc1C [Compound 34] | 80 to 100 | 80 to 100 | pest or weed control at 6.25 µg/mL ([2]; 6.25 mg/L): 70 to 80%; pest or weed control at 25 µg/mL ([2]; 25 mg/L): 80 to 100%
 | CNC(=O)/C(=N/OC)c1ccccc1CO/N=C(C)/C=C/c1c(Cl)cccc1Cl [Fenaminstrobin, reference compound] |  |  | Erysiphe graminis control rating ([2]; 6.25 mg/L): B (70% ≤ B < 80%); Erysiphe graminis control rating ([2]; 25 mg/L): A (80% ≤ A ≤ 100%); Erysiphe graminis control rating ([2]; 100 mg/L): A (80% ≤ A ≤ 100%); Sphaerotheca fuliginea control rating [3]: B (70% ≤ B < 80%)
 | OC(Cc1ccccc1Cl)(Cn1nc[nH]c1=S)C1(Cl)CC1 (stereo not shown) [Prothioconazole, reference compound] | 80 to 100 | 70 to 80 | pest or weed control at 6.25 µg/mL ([2]; 6.25 mg/L): 70 to 80%; pest or weed control at 25 µg/mL ([2]; 25 mg/L): 80 to 100%
